Converted amounts (≈) assume the structure as drawn. Where two headings read alike, the source gives them in different places.
Key:
Type in all cases: physicochemical
physchem [1] = conditions: aqueous buffer, thermodynamic from solid, read-out: Actual [CPMM] Concentration (maximum solubility)
Experimental: CPMM was evaluated for maximum solubility in aqueous pH 1-9 buffer solutions. CPMM was weighted into 1.0 mL of each solution, vortex mixed to solubilize, and placed on a shaker table until saturated. Additional CPMM was added and replaced on the shaker table until a saturated solution was obtained. The one exception was the pH 1 sample solution, which never reached saturation level due to the CPMM's high solubility at that pH range. Saturated solutions were centrifuged and the supernatants were analyzed by HPLC.

physchem [2] = conditions: imidazole nitrogen in position 3; solubility analysis (log solubility curve) and titration
Source text: The solubility of compounds as disclosed herein is pH-dependent. The imidazole nitrogen in position 3 of CPMM has a pKa of approximately 2.5, as determined by solubility analysis and titration. For example, CPMM is very water soluble at low pH, but solubility decreases with increasing pH, such that it is lower at pH 3-8.

physchem [3] = conditions: for HPLC [CPMM] Concentration: diluted sample; for Actual [CPMM] Concentration: never saturated, stopped after 100 mg added
Experimental: CPMM solubility was also evaluated in common solvents: water, methanol, ethanol, acetonitrile, and isopropanol. CPMM was weighed into 1.0 mL of each solvent and vortex-mixed. Only the water sample was saturated with CPMM; the other solvents never achieved saturation due to their high CPMM solubility. The screening was stopped after 100 mg of bulk CPMM had been added. Table 2 lists the ABP-700 solubility results in common solvents.

[4] = 1- and 2-week accelerated stability of CPMM (~0.3 mg/mL) in aqueous pH buffer media, HPLC purity; conditions: for CPMM % Purity: t = 0
Experimental: The aqueous CPMM pH 1-9 samples described above were diluted as necessary to approximately 0.3 mg/mL and placed on accelerated stability at 25° C./60% relative humidity and 40° C./75% relative humidity conditions for two weeks. Samples were pulled at t=0, 1, and 2 weeks from set-up, and analyzed by HPLC. Samples were diluted to approximately 0.3 mg/mL, which well below the HPLC method nominal concentration, due to concerns of precipitation during the two week stability study. The injection volume was increased to compensate for the lower drug concentration in solution. The change in CPMM purity over the study duration is listed in Table 3 and plotted in FIGS. 3-5.
The pH 1 sample was placed on stability at a non-diluted concentration due to an error. This sample was re-diluted at the one-week time point to match the concentration in the pH 2-9 samples and re-placed on stability. The pH 9 sample results were not included in FIGS. 3-5 due to excessive degradation and for easier visual assessment over the more relevant pH 2-8 range.

SMILES: COC(=O)C1(OC(=O)c2cncn2[C@H](C)c2ccccc2)CC1 [CPMM, 1-(methoxycarbonyl)cyclopropyl-1-[(1R)-1-phenylethyl]-1H-imidazole-5-carboxylate]
- solubility (physchem [1]; 50 mM buffer pH 1 (phosphoric acid), actual pH 0.63, never saturated, not a true maximum solubility): 404000 µg/mL (≈ 1280 mM)
- solubility (physchem [1]; 50 mM buffer pH 2 (phosphoric acid), actual pH 1.43): 49400 µg/mL (≈ 157 mM)
- solubility (physchem [1]; 50 mM buffer pH 3 (phosphoric acid), actual pH 2.62): 3150 µg/mL (≈ 10 mM)
- solubility (physchem [1]; 50 mM buffer pH 4 (citric acid), actual pH 3.5): 677 µg/mL (≈ 2.15 mM)
- solubility (physchem [1]; 50 mM buffer pH 5 (citric acid), actual pH 4.57): 325 µg/mL (≈ 1.03 mM)
- solubility (physchem [1]; 50 mM buffer pH 6 (citric acid), actual pH 5.55): 284 µg/mL (≈ 0.903 mM)
- solubility (physchem [1]; 50 mM buffer pH 7 (phosphoric acid), actual pH 6.68): 268 µg/mL (≈ 0.853 mM)
- solubility (physchem [1]; 50 mM buffer pH 8 (phosphoric acid), actual pH 7.48): 260 µg/mL (≈ 0.827 mM)
- solubility (physchem [1]; 50 mM buffer pH 9 (phosphoric acid), actual pH 8.81): 279 µg/mL (≈ 0.888 mM)
- pKa (physchem [2]): ~2.5
- HPLC [CPMM] Concentration (physchem [3]; Acetonitrile, dilution factor 166.67): 474.2 µg/mL
- Actual [CPMM] Concentration (physchem [3]; Acetonitrile): 79034.9 µg/mL
- HPLC [CPMM] Concentration (physchem [3]; Ethanol, dilution factor 166.67): 534.3 µg/mL
- Actual [CPMM] Concentration (physchem [3]; Ethanol): 89051.8 µg/mL
- HPLC [CPMM] Concentration (physchem [3]; Isopropanol, dilution factor 166.67): 514.5 µg/mL
- Actual [CPMM] Concentration (physchem [3]; Isopropanol): 85751.7 µg/mL
- HPLC [CPMM] Concentration (physchem [3]; Methanol, dilution factor 166.67): 503.2 µg/mL
- Actual [CPMM] Concentration (physchem [3]; Methanol): 83868.3 µg/mL
- HPLC [CPMM] Concentration (physchem [3]; Water, dilution factor 6.67): 449.2 µg/mL
- solubility thermodynamic (physchem [3]; thermodynamic from solid, Water, saturated, read-out: Actual [CPMM] Concentration): 3000 µg/mL (≈ 9.53 mM)
- CPMM % Purity ([4]; 50 mM buffer pH 2 (Phosphoric Acid)): 99.39%
- CPMM % Purity ([4]; 50 mM buffer pH 3 (Phosphoric Acid)): 99.33%
- CPMM % Purity ([4]; 50 mM buffer pH 4 (Citric Acid)): 98.59%
- CPMM % Purity ([4]; 50 mM buffer pH 5 (Citric Acid)): 97.77%
- CPMM % Purity ([4]; 50 mM buffer pH 6 (Citric Acid)): 97.55%
- CPMM % Purity ([4]; 50 mM buffer pH 7 (Phosphoric Acid)): 98.16%
- CPMM % Purity ([4]; 50 mM buffer pH 8 (Phosphoric Acid)): 98.32%
- CPMM % Purity ([4]; 50 mM buffer pH 9 (Boric Acid)): 94.98%
- Change in CPMM % Purity ([4]; pH 5 (Citric Acid), 25° C./60% RH, t = 1 week): −0.62%
- Change in CPMM % Purity ([4]; pH 5 (Citric Acid), 25° C./60% RH, t = 2 week): −1.06%
- Change in CPMM % Purity ([4]; pH 5 (Citric Acid), 40° C./75% RH, t = 1 week): −2.16%
- Change in CPMM % Purity ([4]; pH 5 (Citric Acid), 40° C./75% RH, t = 2 week): −3.48%
- Change in CPMM % Purity ([4]; pH 6 (Citric Acid), 25° C./60% RH, t = 1 week): −0.33%
- Change in CPMM % Purity ([4]; pH 6 (Citric Acid), 25° C./60% RH, t = 2 week): −0.55%
- Change in CPMM % Purity ([4]; pH 6 (Citric Acid), 40° C./75% RH, t = 1 week): −2.72%
- Change in CPMM % Purity ([4]; pH 6 (Citric Acid), 40° C./75% RH, t = 2 week): −3.49%
- Change in CPMM % Purity ([4]; pH 7 (Phosphoric Acid), 25° C./60% RH, t = 1 week): −0.39%
- Change in CPMM % Purity ([4]; pH 7 (Phosphoric Acid), 25° C./60% RH, t = 2 week): −0.96%
